Settings: a range is the spread between reports

Structure (SMILES)	melting point [°C]
COC(=O)CCCCCCCCCCC(=O)OC	30 to 31.9
Clc1ccccc1C(Cl)(Cl)Cl	29 to 30
CC(C)(C)S	-0.5 to 1
CCCCCI	-86 to -85.6
O=[N+]([O-])c1ccc(F)c([N+](=O)[O-])c1	25.8 to 27
CCC(C)(O)CC	-24 to -23.6
CON(C)C(=O)Nc1ccc(Cl)c(Cl)c1	93 to 93.5
Cc1ccc(N)cc1C	50 to 51
OCCSSCCO	25 to 26
O=C(O)c1cc([N+](=O)[O-])cc([N+](=O)[O-])c1O	170 to 171
C=CBr	-139 to -138
O=[N+]([O-])c1cccc(Cl)c1Cl	61.5 to 62
CC(C)=C(C)C(C)C	-113
CCCCCCCCCCCCS	-8 to -7
CCCCCCCCCCCCCCCCC(=O)O	60 to 61.3
Clc1nc(Cl)c(Cl)c(Cl)c1Cl	125 to 126
c1ccc(/N=N/c2ccccc2)cc1	67 to 69
C[C@H](O)[C@@H](C)O	33 to 34.5
OC1C2CCC(C2)C1O (configuration not stated)	139 to 141
O=C=S	-139
c1ccc(OP(Oc2ccccc2)Oc2ccccc2)cc1	23 to 25

Structure (SMILES)	melting point [°C]
CCCCCCCCCCCCCCCC(C)C	5.7 to 6
CCN(C(C)C)C(C)C	-50 to -46
CNC(=O)CSP(=S)(OC)OC	51.5 to 52
CC(C(C)(C)C)C(C)(C)C	-39 to -38.7
CC(C)=CC(C)C	-128
CC(C)Nc1ccc(Nc2ccccc2)cc1	74 to 77
COc1ccccc1[N+](=O)[O-]	9.4 to 10.5
CCCC#N	-112
c1ccc(-c2ccccc2-c2ccccc2)cc1	56 to 57
C=C(C)C(C)(C)C	-110
ClCCCCCl	-38 to -37
COCC(=O)O	7.7 to 8
O=C(O)CCCCC(=O)O	152 to 153
CC(C)C(=O)O	-47 to -46
CCCCC(C)CCC (configuration not stated)	-113
CC(=O)NO	88 to 90.5
CCCCOC	-116 to -115
Brc1ccc(Oc2ccc(Br)cc2)cc1	58 to 60.5
CCOC(=O)C(O)(c1ccccc1)c1ccccc1	30 to 34
CCCCCc1cc(O)c2c(c1)OC(C)(C)c1ccc(C)cc1-2	76.5 to 77
CCCCCCOC=O	-63 to -62.6

Structure (SMILES)	melting point [°C]
NC(=O)c1cc([N+](=O)[O-])cc([N+](=O)[O-])c1	182 to 184
Brc1ccc(Br)cc1	87 to 88
Clc1ccccc1	-46 to -45
BrCc1ccc(CBr)cc1	142 to 144
N#CNC(=N)N	208 to 211
C/C=C\CCC	-141
O=[N+]([O-])c1ccc(Cl)cc1	83.5 to 84
Clc1cccc(-c2ccccc2)c1	16 to 18
CCCCC1(CC)C(=O)NC(=O)NC1=O	126 to 128
C=CCCCC	-140
CC#CCO	-2.2 to -2
C=C(C)CC(C)C	-124
Nc1c(Cl)cc([N+](=O)[O-])cc1[N+](=O)[O-]	154 to 157
N#Cc1cccc(C(=O)O)c1	219 to 223
C=CC(=O)OCC	-71.2 to -71
Clc1ccc(C(c2ccc(Cl)cc2)C(Cl)Cl)cc1	109 to 110
ClCC1CO1 (configuration not stated)	-57.2 to -57
Nc1ccc2c(c1)Cc1ccccc1-2	128 to 129
C#CCCO	-63.6 to -63
Fc1cc(F)c(F)c(F)c1F	-48 to -47.3
ClCc1ccccc1	-45 to -43

Structure (SMILES)	melting point [°C]
CCC	-188
CCc1ccccc1N	-47 to -44
CCOC(=O)C(C(=O)OCC)c1ccccc1	16 to 16.5
N#Cc1ccccc1N	47 to 51
ClCC(Cl)(Cl)Cl	-70.2 to -70
Cc1ccc(Cl)cc1[N+](=O)[O-]	36 to 39
CC(C)(C)O	25 to 26
O=C(O)Cc1ccccc1	76 to 79
N#CSCc1ccccc1	42 to 43
OCC(F)(F)C(F)(F)C(F)(F)CO	78 to 79.5
O=[N+]([O-])c1ccccc1O	44 to 46
COC(N)=O	54 to 55
Clc1ccc(Cl)c(Cl)c1Cl	47 to 47.5
N#CCCc1ccccc1	-2 to -1
CC(C)CCCCC(C)C	-55 to -54
O=S1(=O)CCCC1	27 to 27.6
CC(C)(C)c1ccccc1O	-7 to -6.8
COc1ccc(C=O)cc1	-1 to 1

The remaining lines, values ahead:

melting point [°C]	Structure (SMILES)
-62.8 to -62	Cc1ccc(C)o1
24 to 27	COc1ccc(C)cc1OC
97.5 to 98	O=C(O)CCOc1ccccc1
123 to 125	Nc1cccc(O)c1
95 to 96	C=Cc1cccc(C(=O)O)c1
51.5 to 52	CC(C)C(O)C(C)(C)CO (configuration not stated)
124	CCOC(=O)c1cc2ccccc2[nH]1
83 to 84	O=C1c2ccccc2-c2ccccc21
80 to 82.5	COc1ccc(OC)c(N)c1
171 to 172	O=C(O)C(=Cc1ccccc1)c1ccccc1
63 to 68	O=Cc1cc(Cl)cc(Cl)c1
143 to 144	COc1cc(CC(=O)O)ccc1O
-68.9 to -68	Cc1ccc(C(C)C)cc1
20 to 20.7	CCOc1ccccc1C(=O)O
105 to 107	CCCCC1C(=O)N(c2ccccc2)N(c2ccccc2)C1=O
83 to 84	Oc1ccc(Cc2ccccc2)cc1
95 to 96	Cc1cccc(C(N)=O)c1
108 to 110	Nc1cccc2ncccc12
237 to 242	O=C(O)c1ccc([N+](=O)[O-])cc1
-99.3 to -99	CCOC(=O)CC(C)C
65 to 66	N#Cc1ccc2ccccc2c1
-28 to -27	Cc1ccccc1Br
52.9 to 56	CCCCCCCCCCCCCCCCCCN

melting point [°C]	Structure (SMILES)
42 to 43	COC(=O)c1cc(OC)cc(OC)c1
49 to 51.5	Cc1ccc(C(C)C)c(O)c1
99 to 101	COc1ccccc1C(=O)O
-41 to -40.6	CC1CCC(=O)CC1
53 to 55	Cc1ccc([N+](=O)[O-])c(O)c1
58 to 61	Cc1cc2ccccc2[nH]1
-5 to -4.8	C1COCCN1
111 to 112	CN(C)c1ccncc1
173 to 176	CC(=O)c1ccc(OCC(=O)O)cc1
9.5 to 10	Brc1ccccc1I
28 to 30	c1ccc2nccnc2c1
57.5 to 59	COc1ccccc1OC(=O)c1ccccc1
250 to 251	O=C1CC(c2ccc(O)cc2)Oc2cc(O)cc(O)c21 (configuration not stated)
-118	CCC1=CCCC1
43.5 to 48	CC12CCC(C1)C(C)(C)C2O (configuration not stated)
155	NC(=O)c1cccc(Br)c1
-21 to -20	CCOC(=O)CCC(=O)OCC
51.5 to 52	Cc1ccc(O)c(C(C)(C)C)c1
282 to 283	c1ccc(C(c2ccccc2)(c2ccccc2)c2ccccc2)cc1
-110	CCC1=CCCCC1
300	c1ccc2[nH]c(-c3cscn3)nc2c1
116 to 117	O=C(O)Cc1ccc(Br)cc1
57 to 58	OCc1cccc(CO)c1

melting point [°C]	Structure (SMILES)
12 to 13.5	CC(=O)c1cccnc1
131 to 132	O=C1OC(=O)c2ccccc21
33 to 36	O=[N+]([O-])c1ccc(F)cc1O
66 to 67.1	C(CC1CCNCC1)CC1CCNCC1
-31.2 to -31	CCc1ccccc1CC
64 to 65.5	COc1ccc(C(=O)c2ccccc2)c(O)c1
56 to 59	CC(=O)CC(=O)c1ccccc1
-105	COCOC
50 to 52.5	CC1(C)CC(C)(c2ccccc2)c2ccccc21 (configuration not stated)
123 to 124	O=C(O)CCCc1c[nH]c2ccccc12
105 to 106	Oc1ccccc1O
7 to 8	Cc1ccc(Cl)cc1
90 to 93	Nc1nccs1
139 to 140	c1ccc(-c2nnc(-c3ccccc3)o2)cc1
58 to 60	Clc1cccc(Br)c1Cl
70 to 71.5	c1ccc(CSSCc2ccccc2)cc1
206 to 208	Nc1cccc2ccc(O)cc12
-8 to -7.5	Nc1ccc(F)cc1F
210 to 216	O=C(O)c1cc(-c2ccc(F)cc2F)ccc1O
-76 to -75.9	CCCOC(=O)CC
7 to 9	Cc1cccc(-c2cccc(C)c2)c1
74 to 75	Cn1c(=O)ccc2ccccc21
342 to 347	O=C(O)c1cccc(C(=O)O)c1

melting point [°C]	Structure (SMILES)
94 to 97.5	O=C=Nc1ccc(N=C=O)cc1
115 to 116	CCCC(N)=O
42 to 42.8	COc1cccc(O)c1O
-24 to -23.7	Cc1cc(C)c(C)c(C)c1
-73.9 to -73	CCOC(=O)CC
200 to 201	COc1cc(Cc2cnc(N)nc2N)cc(OC)c1OC
162 to 164	Oc1cc2ccccc2cc1O
44 to 45	CCOC(=O)c1ccc(C(=O)OCC)cc1
79.5 to 80	O=C1CCC(c2ccccc2)CC1
15 to 16	c1ccc(NC2CCCCC2)cc1
71 to 73	Cc1cc(C)c(Br)cc1C
38 to 39.5	Oc1c(F)cccc1F
158 to 159	CN(C)C(=O)Nc1ccc(Cl)c(Cl)c1
236 to 237	c1ccc([Si](c2ccccc2)(c2ccccc2)c2ccccc2)cc1
93 to 94	c1ccc(C(c2ccccc2)c2ccccc2)cc1
160 to 161	NC(=O)c1ccccc1Br
133 to 134	COc1cccc(C(N)=O)c1
-100 to -99	C[Si](C)(C)C
41 to 43.5	c1ccc(CSc2ccccc2)cc1
176	Cn1c(=O)n(C)c(=O)n(C)c1=O
40 to 41	BrCCCCCCCCCCCCBr
18 to 19	CCCCCCCCCCCCCC(=O)OC
